Reference: article PMC12363342, “Investigating the N-terminal linker histone H1 subtypes as substrates for JmjC lysine demethylases” (RSC Chemical Biology, 2025)
Square brackets hold non-standard residues; d marks the D form. Ends that are not written are not given here. Lys(Me3) = C[N+](C)(C)CCCC[C@H](N)C(=O)O

Legend:
[1] = tested on: KDM3A; assay: LC-MS demethylation activity assay, KDM3A; assay type: biochemical, human; conditions: 2 μM KDM, 10 μM H1/H3 peptide, 10 μM FAS, 100 μM LAA, 20 μM 2OG, 50 mM HEPES pH 7.5, 2 h, room temperature, T (tri-) initial methylation state
Summary of the method: (§1)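 H1 isoform peptides (10 μM) were incubated 2 h at room temperature with 2 μM recombinant N-terminally His6-tagged catalytic domains in 50 mM HEPES pH 7.5 containing FAS (10 μM), ascorbate (100 μM) and 2OG (20 μM). Reactions were quenched with formic acid (1% final), and demethylation was analysed by LC-MS (Q-TOF).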

[2] = tested on: KDM4A; assay: LC-MS demethylation activity assay, KDM4A; assay type: biochemical, human; conditions: 10 μM FAS, 100 μM LAA, 20 μM 2OG, room temperature; for substrate conversion (demethylation) by KDM4A: 2 μM KDM4A, 10 μM peptide, HEPES pH 7.5, 2 h; for KDM4A demethylation activity, T: 2 μM KDM, 10 μM H1/H3 peptide, 50 mM HEPES pH 7.5, 2 h, T (tri-) initial methylation state
Summary of the method: as §1

[3] = target: T1, KDM4E (Homo sapiens, UniProt B2RXH2); assay: LC-MS demethylation activity assay, KDM4E; assay type: biochemical; conditions: room temperature; for substrate conversion (demethylation) by KDM4E / di-methylated product formed by KDM4E / mono-methylated product formed by KDM4E: 2 μM KDM4E, 10 μM peptide; for substrate conversion (demethylation) by KDM4E / KDM4E demethylation activity, T: 10 μM FAS, 100 μM LAA, 20 μM 2OG; for substrate conversion (demethylation) by KDM4E: HEPES pH 7.5, 2 h; for di-methylated product formed by KDM4E / mono-methylated product formed by KDM4E: standard conditions, 2 h; for KDM4E demethylation activity, T: 2 μM KDM, 10 μM H1/H3 peptide, 50 mM HEPES pH 7.5, 2 h, T (tri-) initial methylation state
T1 construct: KDM4DM1-L359,[39]; KDM4EM1-R336,[30]; His6 (N); made in house; host or cells: Escherichia coli
T1 sequence (B2RXH2 1-336): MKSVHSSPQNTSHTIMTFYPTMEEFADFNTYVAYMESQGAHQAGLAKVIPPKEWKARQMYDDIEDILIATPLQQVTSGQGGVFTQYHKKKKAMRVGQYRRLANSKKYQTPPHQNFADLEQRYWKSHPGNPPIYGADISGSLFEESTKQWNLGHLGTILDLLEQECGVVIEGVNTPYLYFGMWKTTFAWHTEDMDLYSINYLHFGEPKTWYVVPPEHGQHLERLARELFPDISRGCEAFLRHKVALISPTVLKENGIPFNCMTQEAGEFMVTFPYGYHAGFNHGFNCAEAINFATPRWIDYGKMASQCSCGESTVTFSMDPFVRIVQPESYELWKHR
Summary of the method: as §1

Row | Substance | KDM3A demethylation activity, T [1] | substrate conversion (demethylation) by KDM4A [2] | KDM4A demethylation activity, T [2] | substrate conversion (demethylation) by KDM4E [3] | di-methylated product formed by KDM4E [3] | mono-methylated product formed by KDM4E [3] | KDM4E demethylation activity, T [3]
1 | KKKAAK[Lys(Me3)]AGGTPRKA [Peptide H1.2K26me3, 15-mer linker histone H1.2 residues 20-34 peptide, tri-methylated K26] | ● [red] | ~51% | ● [yellow] (yellow dots indicate moderate demethylation (<50% conversion)) | ~80% | ~50% | ~30% | ● [green] (green dots indicate good demethylation (>50% conversion))
2 | KKKAA[Lys(Me3)]KAGGTPRKA [Peptide H1.2K25me3, 15-mer linker histone H1.2 residues 20-34 peptide, tri-methylated K25] | ● [red] | ~45% | ● [green] (green dots indicate good demethylation (>50% conversion)) | ~80% | ~50% | ~30% | ● [red]
3 | KKKAR[Lys(Me3)]SAGAAKRKA [Peptide H1.4K25me3, 15-mer linker histone H1.4 residues 20-34 peptide, tri-methylated K25] | ● [red] | ~87% | ● [green] (green dots indicate good demethylation (>50% conversion)) | ~95% | ~28% | ~67% | ● [red]
4 | KKKATK[Lys(Me3)]AAGAGAAK [Peptide H1.5K26me3, 15-mer linker histone H1.5 residues 20-34 peptide, tri-methylated K26] | ● [red] | < 10% | ● [green] (green dots indicate good demethylation (>50% conversion)) |  | ~40% | ~16% | ● [green] (green dots indicate good demethylation (>50% conversion))
5 | KKKA[Lys(Me3)]KAGATAGKRK [Peptide H1.3K24me3, 15-mer linker histone H1.3 residues 20-34 peptide, tri-methylated K24] | ● [red] | ~36% | ● [green] (green dots indicate good demethylation (>50% conversion)) | ~80% | ~42% | ~38% | ● [green] (green dots indicate good demethylation (>50% conversion))
